pKd: −log10 of the molar value. Active and inactive are the calls of the source. The calls are words filed in the database; no cut-off is given here. *1 amine or outer side, *2 acyl side, *3 side chain or, on linkers, in order; H or OH if unused. Where a SMILES comes first, the peptide text is derived from it. Bridges are numbered along the chain shown (N, C = ends). Roman numbers before positions name the chains, in order. [ ]: non-standard residue; d: D form. Actinocin(9to1) = Cc1c2oc3c(C)ccc(C(=O)[*:1])c3nc-2c(C(=O)[*:2])c(N)c1=O; NMeV = CN[C@H](C(=O)O)C(C)C; Sar = CNCC(=O)O
Columns and labels:
Nucleic Acid [1] = experiment: Displacement of ethidium bromide from human pre-hsa-mir-155 miRNA after 30 mins; type: nucleic-acid assay
Nucleic Acid [2] = experiment: Binding affinity to human pre-hsa-mir-155 miRNA assessed as inhibition of dicer-catalysed (33P)-labelled pre-miRNA processing at 1 mM after 1 hr by PAGE analysis; type: nucleic-acid assay; settings: for residual activity: values are per cent of control
[3] = Aqueous solubility of the compound; type: physicochemical; settings: buffer
Nucleic Acid [4] = experiment: Binding affinity to human pre-hsa-mir-155 miRNA assessed as increase in melting temperature; type: nucleic-acid assay
Nucleic Acid [5] = experiment: Binding affinity to human pre-hsa-mir-155 miRNA assessed as melting temperature at 12 uM (reference value: 48 degC); type: nucleic-acid assay
Nucleic Acid [6] = experiment: Binding affinity to human pre-hsa-mir-155 miRNA assessed as melting temperature at 10 uM (reference value: 48 degC); type: nucleic-acid assay
Nucleic Acid [7] = experiment: Binding affinity to human pre-hsa-mir-155 miRNA assessed as melting temperature at 2 uM (reference value: 48 degC); type: nucleic-acid assay
Nucleic Acid [8] = experiment: Binding affinity to human pre-hsa-mir-155 miRNA assessed as melting temperature at 112 uM (reference value: 48 degC); type: nucleic-acid assay
Nucleic Acid [9] = experiment: Binding affinity to human pre-hsa-mir-155 miRNA assessed as increase in fluorescence after 30 mins by fluorimetry; type: nucleic-acid assay

Molecule: NC[C@@H]1O[C@H](O[C@H]2[C@@H](O)[C@H](O[C@@H]3[C@@H](O)[C@H](N)C[C@H](N)[C@H]3O[C@H]3O[C@H](CN)[C@@H](O)[C@H](O)[C@H]3N)O[C@@H]2CO)[C@H](N)[C@@H](O)[C@@H]1O (stereo in doubt; form 2) [FRAMYCETIN]
- pKd (Nucleic Acid [1]): 4.96

Molecule: CN(C)[C@@H]1C(O)=C(C(N)=O)C(=O)[C@@]2(O)C(O)=C3C(=O)c4c(O)cccc4[C@@](C)(O)[C@H]3C[C@@H]12
- Activity (Nucleic Acid [1]): inactive

Molecule: CN[C@@H]1[C@H](O[C@H]2[C@H](O[C@H]3[C@H](O)[C@@H](O)[C@H](NC(=N)N)[C@@H](O)[C@@H]3NC(=N)N)O[C@@H](C)[C@]2(O)CO)O[C@@H](CO)[C@H](O)[C@H]1O [DIHYDROSTREPTOMYCIN]
- pKd (Nucleic Acid [1]): < 4.00

Molecule: NC[C@H]1O[C@H](O[C@H]2[C@H](O)[C@@H](O[C@H]3O[C@H](CO)[C@@H](O)[C@H](N)[C@H]3O)[C@H](N)C[C@@H]2N)[C@H](N)C[C@@H]1O [TOBRAMYCIN]
- pKd (Nucleic Acid [1]): < 4.00

Molecule: Nc1ccc2cc3ccc(N)cc3nc2c1
- residual activity (Nucleic Acid [2]): 93%

Molecule: Cc1c2c(c(O)c3c(O)cccc13)C(=O)[C@]1(O)C(=O)C(C(N)=O)=C(O)[C@H](N(C)C)[C@@H]1C2.Cl
- solubility [3]: soluble
- Activity (Nucleic Acid [1]): inactive

Molecule: CN(C)[C@H]1C(O)=C(C(N)=O)C(=O)[C@@]2(O)C(O)=C3C(=O)c4c(O)ccc(Cl)c4[C@@](C)(O)[C@H]3C[C@@H]12
- Activity (Nucleic Acid [1]): inactive

Molecule: CCO.C[C@H]1c2cccc(O)c2C(=O)C2=C(O)[C@]3(O)C(=O)C(C(N)=O)=C(O)[C@@H](N(C)C)[C@@H]3[C@@H](O)[C@@H]21.Cl.O
- solubility [3]: soluble
- Activity (Nucleic Acid [1]): inactive

Molecule: COc1cccc2c1C(=O)c1c(O)c3c(c(O)c1C2=O)C[C@@](O)(C(C)=O)C[C@@H]3O[C@H]1C[C@H](N)[C@H](O)[C@H](C)O1
- residual activity (Nucleic Acid [2]): 19%

Molecule: NC[C@@H]1O[C@H](O[C@H]2[C@@H](O)[C@H](O[C@@H]3[C@@H](O)[C@H](N)C[C@H](N)[C@H]3O[C@H]3O[C@H](CN)[C@@H](O)[C@H](O)[C@H]3N)O[C@@H]2CO)[C@H](N)[C@@H](O)[C@@H]1O (stereo in doubt; form 1)
- residual activity (Nucleic Acid [2]): 10%
- Activity (Nucleic Acid [4]): Dose-dependent effect
- Tm (Nucleic Acid [5]): > 70 °C
- Tm (Nucleic Acid [6]): > 70 °C
- Tm (Nucleic Acid [7]): 50 °C

Molecule: NC[C@H]1O[C@H](O[C@H]2[C@H](O)[C@@H](O[C@H]3O[C@H](CO)[C@@H](O)[C@H](N)[C@H]3O)[C@H](N)C[C@@H]2N)[C@H](N)[C@@H](O)[C@@H]1O [BEKANAMYCIN]
- pKd (Nucleic Acid [1]): 5.22

Molecule: BLEOMYCIN
- inhibition (Nucleic Acid [2]): inactive

Molecule: CN(C)[C@H]1C(O)=C(C(N)=O)C(=O)[C@@]2(O)C(O)=C3C(=O)c4c(O)cccc4[C@@](C)(O)[C@H]3C[C@@H]12
- Activity (Nucleic Acid [1]): inactive

Molecule: N=C(N)c1ccc(-c2cc3ccc(C(=N)N)cc3[nH]2)cc1
- residual activity (Nucleic Acid [2]): 100%

Molecule: CN[C@H](CC(C)C)C(=O)N[C@H]1C(=O)N[C@@H](CC(N)=O)C(=O)N[C@H]2C(=O)N[C@H]3C(=O)N[C@H](C(=O)N[C@H](C(=O)O)c4cc(O)cc(O)c4-c4cc3ccc4O)[C@H](O)c3ccc(c(Cl)c3)Oc3cc2cc(c3O[C@@H]2O[C@H](CO)[C@@H](O)[C@H](O)[C@H]2O[C@H]2C[C@](C)(N)[C@H](O)[C@H](C)O2)Oc2ccc(cc2Cl)[C@H]1O
- inhibition (Nucleic Acid [2]): inactive

Molecule: C=C1c2cccc(O)c2C(=O)C2=C(O)[C@]3(O)C(=O)C(C(N)=O)=C(O)[C@@H](N(C)C)[C@@H]3[C@@H](O)[C@H]12.Cl [METHACYCLINE HYDROCHLORIDE]
- solubility [3]: soluble
- Activity (Nucleic Acid [1]): inactive

Molecule: NC[C@@H]1O[C@H](O[C@H]2[C@@H](O)[C@H](O[C@@H]3[C@@H](O)[C@H](N)C[C@H](N)[C@H]3O[C@H]3O[C@H](CN)[C@@H](O)[C@H](O)[C@H]3N)O[C@@H]2CO)[C@H](N)[C@@H](O)[C@@H]1O (stereo in doubt; form 2)
- residual activity (Nucleic Acid [2]): 10%
- Tm (Nucleic Acid [5]): > 70 °C
- Tm (Nucleic Acid [7]): 48 °C

Molecule: NC[C@@H]1O[C@@H](O[C@H]2[C@H](O)[C@@H](O[C@H]3O[C@H](CO)[C@@H](O)[C@H](N)[C@H]3O)[C@H](N)C[C@@H]2N)[C@@H](O)[C@H](O)[C@H]1O [KANAMYCIN A]
- Activity (Nucleic Acid [4]): Dose-dependent effect
- Tm (Nucleic Acid [8]): > 70 °C
- Tm (Nucleic Acid [5]): 64 °C
- Tm (Nucleic Acid [7]): 55 °C
- pKd (Nucleic Acid [1]): 3.85

Molecule: CCN[C@@H]1C[C@H](N)[C@@H](O[C@H]2OC(CN)=CC[C@H]2N)[C@H](O)[C@H]1O[C@H]1OC[C@](C)(O)[C@H](NC)[C@H]1O [NETILMICIN]
- pKd (Nucleic Acid [1]): < 4.00

Molecule: GENTAMICIN
- pKd (Nucleic Acid [1]): < 4.00

Molecule: CN1CCN(c2ccc3[nH]c(-c4ccc5[nH]c(-c6ccc(O)cc6)nc5c4)nc3c2)CC1
- pKd (Nucleic Acid [9]): 4.85
- residual activity (Nucleic Acid [2]): 40%

Molecule: Cc1c2oc3c(C)ccc(C(=O)N[C@@H]4C(=O)N[C@H](C(C)C)C(=O)N5CCC[C@H]5C(=O)N(C)CC(=O)N(C)[C@@H](C(C)C)C(=O)O[C@@H]4C)c3nc-2c(C(=O)N[C@@H]2C(=O)N[C@H](C(C)C)C(=O)N3CCC[C@H]3C(=O)N(C)CC(=O)N(C)[C@@H](C(C)C)C(=O)O[C@@H]2C)c(N)c1=O (I: T[dV]P[Sar][NMeV] / II: T[dV]P[Sar][NMeV]; ester I:1-I:C, II:1-II:C; linker I:N-II:N via Actinocin(9to1))
- inhibition (Nucleic Acid [2]): inactive

Molecule: CCN(CC)CCCC(C)Nc1c2ccc(Cl)cc2nc2ccc(OC)cc12 (stereo unspecified)
- inhibition (Nucleic Acid [2]): inactive

Molecule: CN(C)[C@@H]1C(O)=C(C(N)=O)C(=O)[C@@]2(O)C(O)=C3C(=O)c4c(O)ccc(Cl)c4[C@@H](O)[C@H]3C[C@@H]12.Cl [DEMECLOCYCLINE HYDROCHLORIDE]
- solubility [3]: soluble
- Activity (Nucleic Acid [1]): inactive

Molecule: CN[C@@H]1[C@@H](O[C@H]2O[C@H](CO)[C@@H](N)[C@H](O)[C@H]2O)OC2C[C@@H](N)[C@@H](O[C@H]3[C@H](O)[C@@H](O)[C@H](N)C[C@@H]3N)OC2[C@@H]1O (stereo partly specified)
- residual activity (Nucleic Acid [2]): 10%

Molecule: CN(C)c1ccc(O)c2c1C[C@H]1C[C@H]3[C@H](N(C)C)C(O)=C(C(N)=O)C(=O)[C@@]3(O)C(O)=C1C2=O
- Activity (Nucleic Acid [1]): inactive

Molecule: Cc1c2c(c(O)c3c(O)cccc13)C(=O)[C@]1(O)C(=O)C(C(N)=O)=C(O)[C@@H](N(C)C)[C@@H]1C2.Cl [ANHYDROTETRACYCLINE HYDROCHLORIDE]
- solubility [3]: soluble
- Activity (Nucleic Acid [1]): inactive

Molecule: COc1ccc2cc3[n+](cc2c1OC)CCc1cc2c(cc1-3)OCO2
- inhibition (Nucleic Acid [2]): inactive

Molecule: CN[C@@H]1[C@H](O)[C@H](NC)[C@H]2O[C@@]3(O)C(=O)C[C@@H](C)O[C@H]3O[C@@H]2[C@H]1O [SPECTINOMYCIN]
- pKd (Nucleic Acid [1]): < 4.00

Molecule: COc1cccc2c1C(=O)c1c(O)c3c(c(O)c1C2=O)C[C@@](O)(C(=O)CO)C[C@@H]3O[C@H]1C[C@H](N)[C@H](O)[C@H](C)O1
- residual activity (Nucleic Acid [2]): 83%

Molecule: CC[n+]1c(-c2ccccc2)c2cc(N)ccc2c2ccc(N)cc21 [HOMIDIUM BROMIDE]
- pKd (Nucleic Acid [9]): 5.30

Molecule: NCC[C@H](O)C(=O)N[C@@H]1C[C@H](N)[C@@H](O[C@H]2O[C@H](CN)[C@@H](O)[C@H](O)[C@H]2O)[C@H](O)[C@H]1O[C@H]1O[C@H](CO)[C@@H](O)[C@H](N)[C@H]1O [AMIKACIN]
- pKd (Nucleic Acid [1]): < 4.00

Molecule: Cc1c2c(c(O)c3c(O)ccc(Cl)c13)C(=O)[C@]1(O)C(=O)C(C(N)=O)=C(O)[C@H](N(C)C)[C@@H]1C2.Cl
- solubility [3]: soluble
- Activity (Nucleic Acid [1]): inactive

Molecule: NC[C@@H]1O[C@H](O[C@H]2[C@@H](O)[C@H](O[C@@H]3[C@@H](O)[C@H](N)C[C@H](N)[C@H]3O[C@H]3O[C@H](CN)[C@@H](O)[C@H](O)[C@H]3N)O[C@@H]2CO)[C@H](N)[C@@H](O)[C@@H]1O (stereo in doubt; form 1) [FRAMYCETIN]
- pKd (Nucleic Acid [1]): 5.22

Reference: ChEMBL document CHEMBL1949550, “Pre-microRNA binding aminoglycosides and antitumor drugs as inhibitors of Dicer catalyzed microRNA processing” (Bioorg Med Chem Lett, 2012)
